pIC50: −log10 of the molar value. Structures can show the parent of a compound that is named as a salt. Where only a bound is given, the exact number is not on record here.

This experiment concerns YAP-TEAD interaction. As to the kind of experiment: SK-HEP-1 reporter assay (8xTEAD responsive elements driving NanoLuc luciferase). It counts as cell-based. Particulars: Homo sapiens, SK-HEP1, SK-HEP-1 reporter assay. The method, then: To identify inhibitors of YAP-TEAD interaction, 8×TEAD responsive elements driving the NanoLuc® luciferase gene were stably integrated into SK-HEP-1 cells (ECACC #: 91091816).
For the assay, cells were treated in duplicates with the test compounds in a 10-point dose, with the top concentration starting at 30 μM (final concentration in assay). After a 24 hour incubation at 37° C., 95% rH, and 5% CO2, a luciferase substrate/lysis reagent mix (NanoGlo™, Promega) was added to the cells, allowing the quantification of cellular luciferase activity.
Cell Media: The cells were cultured in the following media: MEM, +10% FBS, +1× GlutaMAX, +1 mM Sodium-Pyruvate, +100 μM Non-essential amino acids, +0.1 mg/ml Hygromycin. The media used for the assay was: MEM (w/o Phenol Red), +10% FBS, +1× GlutaMAX, +1 mM Sodium-Pyruvate, +100 μM Non-essential amino acids, +0.5% Pen/Strep
Reagents: The reagents used are listed below:
Cell culture: The cells were examined using an inverted microscope to check for health and cell density. To dissociate adherent cells, the monolayer of cells was washed once with pre-warmed PBS. After removing the PBS, 3 ml pre-warmed Accutase® was added to a F75 flask, dispersed evenly and the flask was allowed to sit in incubator for ˜4-5 minutes.
When a single cell suspension was obtained, 7 ml of prewarmed growth media was added and resuspended with the cells. The cell suspension was transferred to a sterile 15 ml conical centrifuge tube, and spun for 5 min at 300×g, RT. The supernatant was discarded and the pellet was resuspended in 10 ml of pre-warmed growth media.
The total cell count was determined, and 20 μl of the desired cell number was added to each well of a 384 well plate using a Multidrop Combi. The plates were then incubated for 24 hours at 37° C., 95% rH, and 5% C02.
Compound treatment: 24 hours after seeding, the cells were treated with compounds.
A 1:333 dilution of compounds, diluted in DMSO, was made to get a final concentration of 0.3% DMSO per well. To transfer the compounds to the assay plate, […] was shot from Labcyte low dead volume plates to the cell plates containing 20 μl media/well with the ECHO 555 liquid handling system.
After treatment, the cells were fed with 20 μl fresh pre-warmed assay media using a Multidrop combi.
The assay plates were then incubated for another 24 h at 37° C., 95% rH, and 5% CO2.
Luciferase readout: 24 h after treatment, the plates were taken out of the incubator and were allowed to equilibrate to RT. 30 μl of NanoGlo® reagent was added to the plates in the dark. Plates were shaken for 20 min on a Teleshake (˜1500 rpm) in the dark. The luminescence was then measured using an EnVision microplate reader. The IC50 values were generated using Genedata Screener®.

The mark [1] stands for this setting: n.d. = value not detectable below threshold given in parentheses, ND = not determinable within the entire range.

For the compound `Cn1cnc2c1c1cc(C3CC(n4nccn4)=NO3)ccc1n2-c1ccc(C(F)(F)F)cc1` (centres unmarked) [Example C212, 2-(5-{1-methyl-4-[4-(trifluoromethyl)phenyl]-1H,4H-imidazo[4,5-b]indol-7-yl}-4,5-dihydro-1,2-oxazol-3-yl)-2H-1,2,3-triazole], the negative logarithm of the IC50 (pIC50) (class symbols) was 5.00 to 7.00.
Still for that read-out and setting: as for `Cc1snc2c1c1cc(C(=O)N3CC[C@@H](O)C3)ccc1n2-c1ccc(C(F)(F)F)cc1` [Example C54, (3R)-1-{3-methyl-8-[4-(trifluoro-methyl)phenyl]-8H-[1,2]thiazolo[3,4-b]indole-5-carbonyl}pyrrolidin-3-ol], the figure is 5.00 to 7.00; as for `Cn1cc2c3cc(NC(=O)CCl)ccc3n(-c3ccc(C(F)(F)F)cc3)c2n1` [Example 23, 2-chloro-N-[2-methyl-8-[4-(trifluoromethyl)phenyl]pyrazolo[3,4-b]indol-5-yl]acetamide], < 5.00.
Compound `Cn1cc2c3cc(C(N)=O)ccc3n(C3CC4(C3)CC(F)(F)C4)c2n1` [Example C205, 8-{6,6-difluorospiro[3.3]heptan-2-yl}-2-methyl-2H,8H-pyrazolo[3,4-b]indole-5-carboxamide] showed a negative logarithm of the IC50 (pIC50) (class symbols) of 5.00 to 7.00.
The same measure, in the same setting: as for `CC(CNC(=O)c1ccc2c(c1)c1cn(C)nc1n2-c1ccc(C(F)(F)F)cc1)c1ccc(F)nc1` (centres unmarked) [Example B92], the figure is 5.00 to 7.00.
Still for that read-out and setting: as for `Cn1nc2c3cc(C(=O)NC(CO)c4nncn4C)ccc3n(-c3ccc(C(F)(F)F)cc3)c2n1` (centres unmarked) [Example C274, N-[2-hydroxy-1-(4-methyl-4H-1,2,4-triazol-3-yl)ethyl]-2-methyl-4-[4-(trifluoromethyl)phenyl]-2H,4H-[1,2,3]triazolo[4,5-b]indole-7-carboxamide], the figure is 5.00 to 7.00; as for `Cn1nc2c3cc(C(=O)N=[S@](=O)(CCO)Cc4cccnc4)ccc3n(-c3ccc(C(F)(F)F)cc3)c2n1` (single isomer, unassigned) [Example C235], 7.00 to 8.00.
On the same count and under the same terms, to `Cn1cc2c3cc(C(=O)N=[S@@](=O)(CCO)Cc4cccnc4)ccc3n(-c3ccc(C(F)(F)F)cc3)c2n1` (single isomer, unassigned) [Example C190] belongs 5.00 to 7.00.
`Cn1cc2c3cc(NC(=O)CNC4CCNC4)ccc3n(-c3ccc(C(F)(F)F)cc3)c2n1` (centres unmarked) [Example C224, N-{2-methyl-8-[4-(trifluoromethyl)phenyl]-2H,8H-pyrazolo[3,4-b]indol-5-yl}-2-[{pyrrolidin-3-yl)amino]acetamide] gave a negative-log IC50 (pIC50) (class symbols) of 5.00 to 7.00.
Same read-out and setting: to `Cn1nc2c3cc(C(=O)N=[S@@](=O)(CCO)Cc4cccnc4)ccc3n(-c3ccc(C(F)(F)F)cc3)c2n1` (single isomer, unassigned) [Example C238] belongs 7.00 to 8.00; to `Cn1cnc2c1c1cc(C3CC(Br)=NO3)ccc1n2-c1ccc(C(F)(F)F)cc1` (centres unmarked) [Example C158, 3-bromo-5-{1-methyl-4-[4-(trifluoromethyl)phenyl]-1H,4H-imidazo[4,5-b]indol-7-yl}-4,5-dihydro-1,2-oxazole], 5.00 to 7.00.
The same measure, in the same setting: to `CCn1cc2c3cc(C(=O)N[C@@H](CO)c4ccccn4)ccc3n(-c3ccc(C(F)(F)F)cc3)c2n1` [Example C256, 2-ethyl-N-[(1R)-2-hydroxy-1-(pyridin-2-yl)ethyl]-8-[4-(trifluoromethyl)phenyl]-2H,8H-pyrazolo[3,4-b]indole-5-carboxamide] belongs 8.00 to 9.00.
For the compound `C[C@@H](CO)NS(=O)(=O)c1ccc2c(c1)c1nnn(C)c1n2-c1ccc(C(F)(F)F)cc1` [Example C1, N-[(2S)-1-hydroxypropan-2-yl]-3-methyl-4-[4-(trifluoromethyl)phenyl]-3H,4H-[1,2,3]triazolo[4,5-b]indole-7-sulfonamide], under setting [1], the negative-log IC50 (pIC50) was < 4.52.
`Cn1cc2c3cc(C(=O)N4CC(C#N)C4)ccc3n(-c3ccc(C(F)(F)F)cc3)c2n1` [Example C59, 1-{2-methyl-8-[4-(trifluoromethyl)phenyl]-2H,8H-pyrazolo[3,4-b]indole-5-carbonyl}azetidine-3-carbonitrile]: the negative logarithm of the IC50 (pIC50) (class symbols) was 5.00 to 7.00.
On the same count and under the same terms, to `Cn1cc2c3cc(C(=O)NC4CCNCC4)ccc3n(-c3ccc(C(F)(F)F)cc3)c2n1` [Example C203, 2-methyl-N-(piperidin-4-yl)-8-[4-(trifluoromethyl)phenyl]-2H,8H-pyrazolo[3,4-b]indole-5-carboxamide trifluoroacetate] belongs 5.00 to 7.00; to `Cn1cc2c3cc(C(=O)NCCOC4CCNC4)ccc3n(-c3ccc(C(F)(F)F)cc3)c2n1` (centres unmarked) [Example C142, 2-methyl-N-[2-(pyrrolidin-3-yloxy)ethyl]-8-[4-(trifluoromethyl)phenyl]-2H,8H-pyrazolo[3,4-b]indole-5-carboxamide], 5.00 to 7.00.
Take `Cn1cc2c3cc(S(=O)(=O)N4CCCC4)ccc3n(-c3ccc(C(F)(F)F)cc3)c2n1` [Example C84, 1-({2-methyl-8-[4-(trifluoromethyl)phenyl]-2H,8H-pyrazolo[3,4-b]indol-5-yl}sulfonyl)pyrrolidine]: the negative-log IC50 (pIC50) under setting [1] was < 5.00.
Still for that read-out and setting: to `Cn1cc2c(n1)c1cc(S(=O)(=O)N3C[C@@H](O)C[C@@H]3c3ccccc3)ccc1n2-c1ccc(C(F)(F)F)cc1` (single isomer, unassigned) [Example C45] belongs < 6.00.
Where the note is “class symbols”, `CNCCC(=O)Nc1ccc2c(c1)c1cn(C)nc1n2-c1ccc(C(F)(F)F)cc1` [Example C222, N-{2-methyl-8-[4-(trifluoromethyl)-phenyl]-2H,8H-pyrazolo[3,4-b]indol-5-yl}-3-(methylamino)propanamide] showed a pIC50 of 5.00 to 7.00.
Same read-out and setting: as for `Cn1cc2c3cc(NC(=O)Cc4ccccn4)ccc3n(-c3ccc(C(F)(F)F)cc3)c2n1` [Example C22, N-{2-methyl-8-[4-(trifluoromethyl)-phenyl]-2H,8H-pyrazolo[3,4-b]indol-5-yl}-2-(pyridin-2-yl)acetamide], the figure is < 5.00; as for `Cn1cc2c3cc(NC(=O)CC4(O)CNC4)ccc3n(-c3ccc(C(F)(F)F)cc3)c2n1` [Example C259, 2-(3-hydroxyazetidin-3-yl)-N-{2-methyl-8-[4-(trifluoromethyl)phenyl]-2H,8H-pyrazolo[3,4-b]indol-5-yl}acetamide Formate], 5.00 to 7.00.
The same measure, in the same setting: as for `C[C@H](CCN)NC(=O)c1ccc2c(c1)c1cn(C)nc1n2-c1ccc(C(F)(F)F)cc1` [Example C27, N-[(2R)-4-aminobutan-2-yl]-2-methyl-8-[4-(trifluoromethyl)phenyl]-2H,8H-pyrazolo[3,4-b]indole-5-carboxamide], the figure is 5.00 to 7.00.
The same measure, in the same setting: to `COCCS(=O)(CCN)=NC(=O)c1ccc2c(c1)c1cn(C)nc1n2-c1ccc(C(F)(F)F)cc1` (centres unmarked) [Example C146, N-[(2-aminoethyl)(2-methoxyethyl)oxo-λ^6-sulfanylidene]-2-methyl-8-[4-(trifluoromethyl)phenyl]-2H,8H-pyrazolo[3,4-b]indole-5-carboxamide] belongs 5.00 to 7.00; to `CC(NC(=O)c1ccc2c(c1)c1cn(C)nc1n2-c1ccc(C(F)(F)F)cc1)c1c[nH]nn1` (centres unmarked) [Example B5], 5.00 to 7.00; to `C[C@@H](NC(=O)c1ccc2c(n1)c1cn(C)nc1n2-c1ccc(C(F)(F)F)cc1)c1ccccn1` [Example C114, 4-methyl-N-[(1R)-1-(pyridin-2-yl)ethyl]-7-[4-(trifluoromethyl)phenyl]-4,5,7,12-tetraazatricyclo[6.4.0.0^2,6]dodeca-1(8),2,5,9,11-pentaene-11-carboxamide], 5.00 to 7.00.
Under “class symbols”, `CC(NC(=O)c1ccc2c(c1)c1cn(C)nc1n2-c1ccc(C(F)(F)F)cc1)c1cccc(N)n1` (single isomer, unassigned) [Example C186] showed a pIC50 of 5.00 to 7.00.
Still for that read-out and setting: as for `Cn1nc2c3cc(C4CC(Oc5cncnc5)=NO4)ccc3n(-c3ccc(C(F)(F)F)cc3)c2n1` (centres unmarked) [Example C234, 5-[(5-{2-methyl-4-[4-(trifluoromethyl)-phenyl]-2H,4H-[1,2,3]triazolo[4,5-b]indol-7-yl}-4,5-dihydro-1,2-oxazol-3-yl)oxy]pyrimidine], the figure is 7.00 to 8.00.
The same measure, in the same setting: to `[2H]C1([2H])C(n2c3ccc(C(=O)N[C@H](C)CO)cc3c3cn(C)nc32)C([2H])([2H])C([2H])([2H])C([2H])([2H])C1([2H])[2H]` [Example C197] belongs 5.00 to 7.00; to `CNCCC(C)NC(=O)c1ccc2c(c1)c1cn(C)nc1n2-c1ccc(C(F)(F)F)cc1` (centres unmarked) [Example C58, 2-methyl-N-[4-(methylamino)butan-2-yl]-8-[4-(trifluoromethyl)phenyl]-2H,8H-pyrazolo[3,4-b]indole-5-carboxamide], 5.00 to 7.00.
